This is an account of results in US4710499A, “New derivatives of pyridazine active on the central nervous system” (priority 1981, dated 1987).

In data set [1] the test system is convulsivant effects of strychnine. Nature of the data set: Anti-Strychnine Activity (oral, mice). In kind it is in vivo. Particulars: for ED50: Mus musculus, po, read-out: Inhibition of the convulsivant effects of Strychinine ED50. Here is the method: (§1) The anticonvulsivant activity of the derivatives was assessed with respect to two chemical agents: strychnine and bicuculline, and with respect to electric shock. In these various tests, the products were compared with the minaprine described in French Patent 2 141 697 mentioned hereinabove.
The products are administered by the oral route 30 minutes before the strychnine 0.9 mg/kg i.p.. The occurrence of tetanic crises as well as mortality are noted during the 60 minutes following administration of strychnine.
(§2) In the three cases, the products are administered in a range of doses to batches of 10 mice per dose.

Data set [2] relates to convulsivant effects of bicuculline. As to the kind of experiment: Anti-Bicuculline Activity (oral, mice). Type of data set: in vivo. Particulars: for ED50: Mus musculus, read-out: Inhibition of the convulsivant effects of Bicuculline ED50. Here is the method:
as §1
Anti-Bicuculline Activity
The products are administered by the oral route 30 minutes before the bicuculline 0.9 mg/kg i.v.. The occurrence of clonic, tonic crises as well as mortality are noted during the 60 minutes following administration of bicuculline.
as §2

Data set [3] relates to convulsivant effects of electric shock. As to the kind of experiment: Anti-Electric Shock Activity (oral, mice). In kind it is in vivo. The following applies: for ED50: Mus musculus, po, read-out: Inhibition of the convulsivant effects of electric shock ED50; for anti-convulsivant activity with respect to electric shock (in words): oral. Here is the method:
The anticonvulsivant activity of the derivatives was assessed with respect to two chemical agents: strychnine and bicuculline, and with respect to electric shock.
Anti-Electric Shock Activity
The electric shock was given to the animal via corneal electrodes. […] The animals not presenting extension of the rear limbs were considered as protected.
as §2

The nature of data set [4]: Acute toxicity, mortality within 24 hours (oral, mice). Type of data set: in vivo. Particulars: mouse, in vivo.
The next data set concerns mice. The description is as above. In kind it is in vivo. Particulars: for toxic effect at the dose of 500 mg/kg p.os (in words): mouse, in vivo.
The conditions of data set [5]: per os; cited from earlier work.
The mark [6] stands for this setting: 30 minutes before bicuculline 0.9 mg/kg i.v., 10 mice per dose.
Setting [7] is: mice, per os, 30 minutes before electric shock (12.5 volts for 0.5 seconds), corneal electrodes, 10 mice per dose.
The mark [8] stands for this setting: mice, oral, 250 mg/kg, 24 hours, read-out: p. cent of mortality at 250 mg/kg.
Where [9] appears, read: mice, oral, 500 mg/kg, 24 hours, read-out: p. cent of mortality at 500 mg/kg.
Setting [10] is: mice, oral, 1000 mg/kg, 24 hours, read-out: p. cent of mortality at 1000 mg/kg.

Counter-ions that a name gives are not always drawn. Like-named read-outs stand apart in the source and are kept apart here.

As for `Cc1cc(-c2ccccc2)nnc1NCCO` [CM 30094, 3-(2-HYDROXY ETHYLAMINO)4-METHYL 6-PHENYL PYRIDAZINE], the ED50 is 119 mg/kg in data set [1], 286 mg/kg in data set [2] (setting [6]) and 107 mg/kg in data set [3] (setting [7]). In addition, the mortality at 24 h in data set [4] (setting [8]), in data set [4] (setting [9]) and in data set [4] (setting [10]) was 0% each time.
On to `Cc1cc(-c2ccccc2)nnc1NCC(C)O` (stereo not shown) [CM 30096], for which the values for the ED50 in data set [1], in data set [2] (setting [6]) and in data set [3] (setting [7]) were 92 mg/kg, 175 mg/kg and 209 mg/kg, respectively. In addition, the “anti-convulsivant activity with respect to strychnine (in words)” value in data set [1] (mice, oral) is “particularly powerful”. The “anti-convulsivant activity with respect to bicuculline (in words)” value in data set [2] is recorded as “still considerable”. In data set [3] (mice), the “anti-convulsivant activity with respect to electric shock (in words)” value is “still considerable”. The mortality at 24 h in data set [4] (po, 250 mg/kg) came to 0%; in data set [4] (po, 500 mg/kg), 20%; in data set [4] (po, 1000 mg/kg), 100%. Moreover, the “toxic effect at the dose of 500 mg/kg p.os (in words)” value in the data set with mice was “have a toxic effect”.
Turning to `Cc1cc(-c2ccccc2)nnc1NCCCCO` [CM 30097], the mortality at 24 h in data set [4] (setting [8]) was 0%; in data set [4] (setting [9]), 0%; in data set [4] (setting [10]), 100%.
For `COCCNc1nnc(-c2ccccc2)cc1C` [CM 30310, 3-(2-METHOXY ETHYLAMINO)4-METHYL 6-PHENYL PYRIDAZINE], the ED50 in data set [1] is 158 mg/kg; in data set [2] (setting [6]), 136 mg/kg; in data set [3] (setting [7]) it was 78 mg/kg. Moreover, the “anti-convulsivant activity with respect to strychnine (in words)” value in data set [1] (mice, oral) is “particularly powerful”. The mortality at 24 h in data set [4] (setting [8]) was 0%; in data set [4] (setting [9]) it was 0%; in data set [4] (setting [10]) it was 100%.
As for `OCCNc1nnc(-c2ccccc2)cc1-c1ccccc1` [CM 30339], the results for the 50% effective dose (ED50) in data set [1], in data set [2] (setting [6]) and in data set [3] (setting [7]) were 145 mg/kg, 86 mg/kg and about 200 mg/kg, respectively. Further, the “anti-convulsivant activity with respect to strychnine (in words)” value in data set [1] (mice, oral) is given as “particularly powerful”. In addition, the mortality at 24 h in data set [4] (po, 250 mg/kg) was determined as 0%; in data set [4] (po, 500 mg/kg), 60%; in data set [4] (po, 1000 mg/kg), 60%. Also, the “toxic effect at the dose of 500 mg/kg p.os (in words)” value with mice is on record as “have a toxic effect”.
As to `COCCNc1nnc(-c2ccccc2)cc1-c1ccccc1` [CM 30340, 3-(2-methoxyethylamino)4,6-diphenyl pyridazine], the mortality at 24 h was 0% in data set [4] (setting [8]), 0% in data set [4] (setting [9]) and 20% in data set [4] (setting [10]).
For `CCCCNc1nnc(-c2ccccc2)cc1C` [CM 30434, 3-BUTYLAMINO 4-METHYL 6-PHENYL PYRIDAZINE], the mortality at 24 h in data set [4] (setting [8]), in data set [4] (setting [9]) and in data set [4] (setting [10]) was 0% in each case.
Consider `Cc1cc(-c2ccccc2)nnc1NCCN1CCOCC1` [Minaprine, reference compound], for which the “anti-convulsivant activity with respect to strychnine (in words)” value in data set [1] (mice, oral) was “totally inactive”. Also, in data set [1] (mice, oral, 30 minutes before strychnine 0.9 mg/kg i.p., 10 mice per dose), the “Inhibition of the convulsivant effects of Strychinine ED50” value is given as “Inactive”. Also, in data set [2], the “anti-convulsivant activity with respect to bicuculline (in words)” value is “totally inactive”. In data set [2] (setting [6]), the “Inhibition of the convulsivant effects of Bicuculline ED50” value is listed as “Inactive”. Also, the “anti-convulsivant activity with respect to electric shock (in words)” value in data set [3] (mice) was “totally inactive”. Further, the “Inhibition of the convulsivant effects of electric shock ED50” value in data set [3] (setting [7]) was “Inactive”. The mortality in data set [4] (po, 100 mg/kg) is 20%. Also, the mortality at 24 h amounted to 100% in data set [4] (po, 250 mg/kg); 100% in data set [4] (po, 500 mg/kg); 100% in data set [4] (po, 1000 mg/kg). In addition, the “toxicity, overall (in words)” value with mice (mice, p.os) is on record as “much greater toxic effect”. In addition, the “dose at which the product shows itself to be convulsivant” value in data set [5] is on record as “greater than 100 mg/kg”.
With `CCCC(CCC)C(=O)O` [Sodium Valproate, sodium salt of valproic acid, reference compound], the figures for the ED50 in data set [1], in data set [2] (setting [6]) and in data set [3] were 480 mg/kg, 234 mg/kg and 290 mg/kg, respectively. The “anti-convulsivant activity with respect to strychnine (in words)” value in data set [1] (mice, oral) is “effective dose 50 most often greater than that of the products of the invention”. The “anti-convulsivant activity with respect to bicuculline (in words)” value in data set [2] is reported as “effective dose 50 most often greater than that of the products of the invention”. Also, the “anti-convulsivant activity with respect to electric shock (in words)” value in data set [3] (mice) was “effective dose 50 most often greater than that of the products of the invention”.
